Legend:
[1] = The drug is tested on Z-029 corresponding to rat gut metagenome with ENA study accession number: PRJEB37062 and ENA sample accession number: ERS12561828 for biotransformation under anaerobic condition. The drug concentrations were measured over 9 timepoints collected between 0 and 24 hours of incubation by liquid-chromatography-coupled mass spectrometry (LC–MS); details: 2 µM
[2] = The drug is tested on Z-028 corresponding to mouse gut metagenome with ENA study accession number: PRJEB37062 and ENA sample accession number: ERS12561827 for biotransformation under anaerobic condition. The drug concentrations were measured over 9 timepoints collected between 0 and 24 hours of incubation by liquid-chromatography-coupled mass spectrometry (LC–MS); details: 2 µM
[3] = The drug is tested on Z-026 corresponding to metagenome with ENA study accession number: PRJEB37062 and ENA sample accession number: ERS12561825 for biotransformation under anaerobic condition. The drug concentrations were measured over 9 timepoints collected between 0 and 24 hours of incubation by liquid-chromatography-coupled mass spectrometry (LC–MS); details: 2 µM
[4] = The drug is tested on Z-019 corresponding to rat gut metagenome with ENA study accession number: PRJEB37062 and ENA sample accession number: ERS12561818 for biotransformation under anaerobic condition. The drug concentrations were measured over 9 timepoints collected between 0 and 24 hours of incubation by liquid-chromatography-coupled mass spectrometry (LC–MS); details: 2 µM
[5] = The drug is tested on Z-017 corresponding to mouse gut metagenome with ENA study accession number: PRJEB37062 and ENA sample accession number: ERS12561816 for biotransformation under anaerobic condition. The drug concentrations were measured over 9 timepoints collected between 0 and 24 hours of incubation by liquid-chromatography-coupled mass spectrometry (LC–MS); details: 2 µM
[6] = The drug is tested on Z-016 corresponding to mouse gut metagenome with ENA study accession number: PRJEB37062 and ENA sample accession number: ERS12561815 for biotransformation under anaerobic condition. The drug concentrations were measured over 9 timepoints collected between 0 and 24 hours of incubation by liquid-chromatography-coupled mass spectrometry (LC–MS); details: 2 µM
[7] = The drug is tested on Z-014 corresponding to rat gut metagenome with ENA study accession number: PRJEB37062 and ENA sample accession number: ERS12561814 for biotransformation under anaerobic condition. The drug concentrations were measured over 9 timepoints collected between 0 and 24 hours of incubation by liquid-chromatography-coupled mass spectrometry (LC–MS); details: 2 µM
[8] = The drug is tested on Z-008 corresponding to metagenome with ENA study accession number: PRJEB37062 and ENA sample accession number: ERS12561808 for biotransformation under anaerobic condition. The drug concentrations were measured over 9 timepoints collected between 0 and 24 hours of incubation by liquid-chromatography-coupled mass spectrometry (LC–MS); details: 2 µM
[9] = The drug is tested on Z-001 corresponding to mouse gut metagenome with ENA study accession number: PRJEB37062 and ENA sample accession number: ERS12561801 for biotransformation under anaerobic condition. The drug concentrations were measured over 9 timepoints collected between 0 and 24 hours of incubation by liquid-chromatography-coupled mass spectrometry (LC–MS); details: 2 µM
[10] = The drug is tested on WLS-310 corresponding to human gut metagenome with ENA study accession number: PRJEB37062 and ENA sample accession number: ERS12561785 for biotransformation under anaerobic condition. The drug concentrations were measured over 9 timepoints collected between 0 and 24 hours of incubation by liquid-chromatography-coupled mass spectrometry (LC–MS); details: 2 µM
[11] = The drug is tested on WLS-010 corresponding to human gut metagenome with ENA study accession number: PRJEB37062 and ENA sample accession number: ERS12561743 for biotransformation under anaerobic condition. The drug concentrations were measured over 9 timepoints collected between 0 and 24 hours of incubation by liquid-chromatography-coupled mass spectrometry (LC–MS); details: 2 µM
[12] = The drug is tested on WLS-007 corresponding to human gut metagenome with ENA study accession number: PRJEB37062 and ENA sample accession number: ERS12561742 for biotransformation under anaerobic condition. The drug concentrations were measured over 9 timepoints collected between 0 and 24 hours of incubation by liquid-chromatography-coupled mass spectrometry (LC–MS); details: 2 µM
[13] = human gut metagenome, 24 h, 2 µM
[14] = human gut metagenome, 24 h, 2 µM; remark: listed apart in the source
[15] = human gut metagenome, 24 h, 2 µM; remark: listed apart in the source
[16] = human gut metagenome, 24 h, 2 µM; remark: listed apart in the source
[17] = human gut metagenome, 24 h, 2 µM; remark: listed apart in the source
[18] = human gut metagenome, 24 h, 2 µM; remark: listed apart in the source
[19] = human gut metagenome, 24 h, 2 µM; remark: listed apart in the source
[20] = human gut metagenome, 24 h, 2 µM; remark: listed apart in the source
Further: call rule not given here.

| Structure (SMILES) | Bacterial Biotransformation [1] | Bacterial Biotransformation [2] | Bacterial Biotransformation [3] | Bacterial Biotransformation [4] | Bacterial Biotransformation [5] | Bacterial Biotransformation [6] | Bacterial Biotransformation [7] | Bacterial Biotransformation [8] | Bacterial Biotransformation [9] | Bacterial Biotransformation [10] | Bacterial Biotransformation [11] | Bacterial Biotransformation [12] | Bacterial Biotransformation [13] | Bacterial Biotransformation [14] | Bacterial Biotransformation [15] | Bacterial Biotransformation [16] | Bacterial Biotransformation [17] | Bacterial Biotransformation [18] | Bacterial Biotransformation [19] | Bacterial Biotransformation [20] |
| --- | --- | --- | --- | --- | --- | --- | --- | --- | --- | --- | --- | --- | --- | --- | --- | --- | --- | --- | --- | --- |
| CNCCC(Oc1ccc(C(F)(F)F)cc1)c1ccccc1 (stereo not given) [FLUOXETINE] | Compound NOT metabolized | Compound NOT metabolized | Compound NOT metabolized | Compound NOT metabolized | Compound NOT metabolized | Compound NOT metabolized | Compound NOT metabolized | Compound NOT metabolized | Compound NOT metabolized | Compound NOT metabolized | Compound NOT metabolized | Compound NOT metabolized | Compound NOT metabolized | Compound NOT metabolized | Compound NOT metabolized | Compound NOT metabolized | Compound NOT metabolized | Compound NOT metabolized | Compound NOT metabolized | Compound metabolized |
| O=C(CCCN1CCC(O)(c2ccc(Cl)cc2)CC1)c1ccc(F)cc1 [HALOPERIDOL] | Compound NOT metabolized | Compound NOT metabolized | Compound NOT metabolized | Compound NOT metabolized | Compound NOT metabolized | Compound NOT metabolized | Compound NOT metabolized | Compound NOT metabolized | Compound NOT metabolized | Compound metabolized | Compound NOT metabolized | Compound NOT metabolized | Compound metabolized | Compound NOT metabolized | Compound NOT metabolized | Compound NOT metabolized | Compound NOT metabolized | Compound NOT metabolized | Compound NOT metabolized | Compound metabolized |
| CCCCC1=NC2(CCCC2)C(=O)N1Cc1ccc(-c2ccccc2-c2nnn[nH]2)cc1 [IRBESARTAN] | Compound NOT metabolized | Compound NOT metabolized | Compound NOT metabolized | Compound NOT metabolized | Compound NOT metabolized | Compound NOT metabolized | Compound NOT metabolized | Compound NOT metabolized | Compound metabolized | Compound metabolized | Compound metabolized | Compound metabolized | Compound metabolized | Compound metabolized | Compound metabolized | Compound metabolized | Compound metabolized | Compound NOT metabolized | Compound metabolized | Compound metabolized |
| NC(CO)(CO)CO.O=C(c1ccccc1)c1ccc2n1CCC2C(=O)O (stereo not given) [KETOROLAC TROMETHAMINE] | Compound metabolized | Compound NOT metabolized | Compound NOT metabolized | Compound NOT metabolized | Compound NOT metabolized | Compound metabolized | Compound NOT metabolized | Compound NOT metabolized | Compound NOT metabolized | Compound metabolized | Compound metabolized | Compound metabolized | Compound metabolized | Compound metabolized | Compound metabolized | Compound metabolized | Compound metabolized | Compound NOT metabolized | Compound metabolized | Compound metabolized |
| CC[C@H](C)C(=O)O[C@H]1C[C@@H](C)C=C2C=C[C@H](C)[C@H](CC[C@@H]3C[C@@H](O)CC(=O)O3)[C@H]21 [LOVASTATIN] | Compound NOT metabolized | Compound metabolized | Compound metabolized | Compound metabolized | Compound metabolized | Compound NOT metabolized | Compound NOT metabolized | Compound NOT metabolized | Compound NOT metabolized | Compound NOT metabolized | Compound NOT metabolized | Compound NOT metabolized | Compound NOT metabolized | Compound NOT metabolized | Compound metabolized | Compound NOT metabolized | Compound NOT metabolized | Compound metabolized | Compound NOT metabolized | Compound NOT metabolized |
